According to patent publication US20240415918A1, “Polypeptide and its use as a CCK receptor agonist/antagonist” (Centre for Regenerative Medicine & Health, Hong Kong …, priority 2021, published 2024):
Where a SMILES comes first, the peptide text is derived from it. [ ]: non-standard residue; d: D form. The star is where a group is joined. Trp(5-OH) = N[C@@H](Cc1c[nH]c2ccc(O)cc12)C(=O)O; sY = N[C@@H](Cc1ccc(OS(=O)(=O)O)cc1)C(=O)O; Phe(3-Br) = N[C@@H](Cc1cccc(Br)c1)C(=O)O; dNMeW = CN[C@H](Cc1c[nH]c2ccccc12)C(=O)O; Fmoc = O=C(OCC1c2ccccc2-c2ccccc21)*; Palmitoyl = CCCCCCCCCCCCCCCC(=O)*; dAoc(2) = CCCCCC[C@@H](N)C(=O)O; Ahp(2) = CCCCC[C@H](N)C(=O)O; Nle = CCCC[C@H](N)C(=O)O

Assays:
[1] = biological target: T1, CCK-B receptors (CHO-CCK) (Homo sapiens, UniProt P32239); experiment: Calcium flux (Fluo-8) agonist test on CHO-CCK model cells; assay type: cell-based; settings: for EC50: CHO-CCK cells; for Agonistic Activity (%) at 10 μM: compound at 10 μM, percentage of signal of 20 nM CCK8 alone
T1 construct: expressed in transfected cells; host or cells: CHO (CHO-CCK model cells)
T1 sequence (P32239 1-447): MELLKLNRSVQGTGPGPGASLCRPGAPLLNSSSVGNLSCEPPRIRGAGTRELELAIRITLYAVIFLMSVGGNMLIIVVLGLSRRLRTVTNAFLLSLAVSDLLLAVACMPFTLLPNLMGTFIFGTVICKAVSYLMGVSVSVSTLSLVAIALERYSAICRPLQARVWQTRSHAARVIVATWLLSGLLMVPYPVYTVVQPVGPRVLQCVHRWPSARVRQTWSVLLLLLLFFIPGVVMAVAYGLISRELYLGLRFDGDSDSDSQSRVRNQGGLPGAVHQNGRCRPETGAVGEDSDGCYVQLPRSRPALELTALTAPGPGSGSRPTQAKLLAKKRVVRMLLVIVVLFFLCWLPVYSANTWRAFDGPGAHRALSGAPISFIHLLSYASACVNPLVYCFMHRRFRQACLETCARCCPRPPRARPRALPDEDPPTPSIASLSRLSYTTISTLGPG
Procedure, shortened: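 Agonist-mode Fluo-8 calcium flux read on CHO-CCK cells after dye loading 30 min at 37 °C plus 30 min at room temperature.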

[2] = biological target: T1, CCK-B receptors (CHO-CCK); experiment: Calcium flux (Fluo-8) antagonist test on CHO-CCK model cells in presence of CCK8; assay type: cell-based
Protocol: The compound was formulated to a 10 mM mother liquor with DMSO, and then diluted into a series of 9 concentrations with a 3-fold gradient to form a 1000× stock solution. […] Prepare 1×Fluo-8 analysis buffer: mix 9 mL of HHBS, 1 mL of 10× Pluronic F127 Plus and 20 μL of Fluo-8 thoroughly for later use. • 3. Add Fluo-8 dye working solution to the cell plate, 100 μL/well. First incubate in a 37° C. incubator for 30 min, and then take it out and incubate at room temperature in the dark for 30 min. • 4. In the process of incubating cells, the compounds to be detected were prepared with HHBS. • 5. […] The agonism/antagonism EC50 of the compound can be obtained by plotting the fitting curve with the agonism/antagonism percentage as Y-axis and the concentration of the compound as X-axis.

[3] = Fluo-8 calcium flux, 100% control = 20 nM CCK8
[4] = compound alone, 100% = 20 nM CCK8
[5] = compound together with 10 nM CCK8
[6] = Fluo-8 calcium flux, bound in μM
[7] = compound together with 10 nM CCK8, bound in μM
[8] = in presence of 10 nM CCK8, bound in μM

Structure (SMILES) | EC50 [1, 3] [µM] | EC50 ([2]; in presence of 10 nM CCK8) [µM] | Agonistic Activity (%) at 10 μM [1] [%] | EC50 [2, 5] [µM] | also measured
CCCCC[C@H](NC(=O)[C@@H](Cc1c[nH]c2ccccc12)N(C)C(=O)OCC1c2ccccc2-c2ccccc21)C(=O)N[C@@H](CC(=O)OC)C(=O)N[C@@H](Cc1cccc(Br)c1)C(N)=O [HT-254, Fmoc-(N-Me-Trp)-Pa-Asp(O-Me)-Phe(3-Br)-NH2] (Fmoc-[dNMeW][Ahp(2)]D(OMe)[Phe(3-Br)]-NH2) | 0.0226 | 1.04 |  |  | 
C[S+]([O-])CC[C@H](NC(=O)[C@H](N)Cc1c[nH]c2ccccc12)C(=O)N[C@@H](CC(=O)O)C(=O)N[C@@H](Cc1cccc(Cl)c1)C(N)=O (stereo partly drawn) [HT-43, D-Trp-Met(O)-Asp-Phe(3-Cl)-NH2] |  |  | 62.14 | 8.97 | EC50 [1, 4]: 3.02 µM
CCCCCCCCCCCCCCCC(=O)NCC(=O)N[C@H](Cc1c[nH]c2ccccc12)C(=O)N[C@@H](CCCC)C(=O)N[C@@H](CC(=O)O)C(=O)N[C@@H](Cc1cccc(Br)c1)C(N)=O [HT-203, (Pal)-Gly-D-Trp-Nle-Asp-Phe(3-Br)-NH2] (Palmitoyl-G[dW][Nle]D[Phe(3-Br)]-NH2) | 0.036 | 1.59 |  |  | 
CSCC[C@H](NC(=O)[C@H](N)Cc1c[nH]c2ccccc12)C(=O)N[C@@H](CC(=O)O)C(=O)N[C@@H](Cc1ccc(F)cc1)C(N)=O [HT-36, D-Trp-Met-Asp-Phe(4-F)-NH2] |  |  | −3.55 | 0.876 | EC50 [1, 4]: 0.0888 µM
CCCC[C@H](NC(=O)[C@@H](Cc1cn(C)c2ccccc12)NC(C)=O)C(=O)N[C@@H](CCC(=O)O)C(=O)N[C@@H](Cc1c(C)[nH]c2ccccc12)C(N)=O [HT-246, Ac-(1-Me-Trp)-Nle-Glu-(2-Me-Trp)-NH2] |  | 2.13 |  |  | EC50 [1, 6]: > 10 µM
COC(=O)C[C@H](NC(=O)[C@H](CCSC)NC(=O)[C@H](N)Cc1c[nH]c2ccccc12)C(=O)N[C@@H](Cc1cc(F)cc(F)c1)C(N)=O [HT-90, D-Trp-Met-Asp(Ome)-Phe(3,5-DiF)-NH2] |  |  | 59.76 | 5.91 | EC50 [1, 4]: 9.3 µM
C[S+]([O-])CC[C@H](NC(=O)[C@H](N)Cc1c[nH]c2ccccc12)C(=O)N[C@@H](CC(=O)O)C(=O)N[C@@H](Cc1cccc(Br)c1)C(N)=O (stereo partly drawn) [HT-46, D-Trp-Met(O)-Asp-Phe(3-Br)-NH2] |  |  | 53.69 | 6.24 | EC50 [1, 4]: 3.8 µM
COC(=O)C[C@H](NC(=O)[C@H](CCSC)NC(=O)[C@H](N)Cc1c[nH]c2ccccc12)C(=O)N[C@@H](Cc1cccc(F)c1)C(N)=O [HT-78, D-Trp-Met-Asp(Ome)-Phe(3-F)-NH2] |  |  | 20.83 |  | EC50 [2, 7]: ~10 µM
CCCC[C@H](NC(=O)[C@H](Cc1c[nH]c2ccccc12)NC(C)=O)C(=O)N[C@@H](CC(=O)O)C(=O)N[C@@H](Cc1c[nH]c2ccccc12)C(N)=O [HT-225, Ac-D-Trp-Nle-Asp-Trp-NH2] | 0.0332 | 0.475 |  |  | 
CS(=O)(=O)CC[C@H](NC(=O)[C@H](N)Cc1c[nH]c2ccccc12)C(=O)N[C@@H](CC(=O)O)C(=O)N[C@@H](Cc1cc(F)cc(F)c1)C(N)=O [HT-73, D-Trp-Met(O2)-Asp-Phe(3,5-DIF)-NH2] |  |  | 55.41 | 8.82 | EC50 [1, 4]: 12.6 µM
CSCC[C@H](NC(=O)[C@H](Cc1c[nH]c2ccccc12)NC(C)=O)C(=O)N[C@@H](CC(=O)O)C(=O)N[C@@H](CCCNC(=N)N)C(N)=O [HT-195, Ac-Trp-Met-Asp-Arg-NH2] (Ac-WMDR-NH2) |  |  |  | 2.2 | EC50 ([1]; compound alone, bound in μM): > 10 µM
CSCC[C@H](NC(=O)[C@H](N)Cc1c[nH]c2ccccc12)C(=O)N[C@@H](CC(=O)O)C(=O)N[C@@H](Cc1ccc(Cl)cc1)C(N)=O [HT-35, D-Trp-Met-Asp-Phe(4-CII)-NH2] |  |  | 109.16 | 0.755 | EC50 [1, 4]: 0.18 µM
CSCC[C@H](NC(=O)[C@@H](Cc1cc2ccccc2[nH]1)NC(=O)[C@@]1(O)C[C@@H](O)[C@H](NC(C)=O)C([C@@H](O)[C@@H](O)CO)O1)C(=O)N[C@@H](CC(=O)O)C(=O)N[C@@H](Cc1cccc(Br)c1)C(N)=O (stereo partly drawn) [HT-256, Sia-D-Trp-Met-Asp-Phe(3-Br)-NH2] | 0.000672 | 0.0419 |  |  | 
CCCC[C@H](NC(=O)[C@H](Cc1c[nH]c2ccccc12)NC(C)=O)C(=O)N[C@@H](CCC(=O)O)C(=O)N[C@@H](Cc1c[nH]c2ccc(O)cc12)C(N)=O [HT-239, Ac-D-Trp-Nle-Glu-(5-HTP)-NH2] (Ac-W[Nle]E[Trp(5-OH)]-NH2) |  |  |  |  | EC50 [1, 6]: > 10 µM; EC50 [2, 8]: > 10 µM
CCCC[C@H](NC(=O)[C@H](Cc1c[nH]c2ccccc12)NC(C)=O)C(=O)N[C@@H](CC(=O)O)C(=O)N[C@@H](Cc1cn(C)c2ccccc12)C(N)=O [HT-228, Ac-D-Trp-Nle-Asp-(1-Me-Trp)-NH2] | 0.262 | 3.07 |  |  | 
CSCC[C@H](NC(=O)[C@H](Cc1cccc(Br)c1)NC(C)=O)C(=O)N[C@@H](CC(=O)O)C(=O)N[C@@H](Cc1cccc(Br)c1)C(N)=O [HT-224, Ac-Phe(3-Br)-Met-Asp-Phe(3-Br)-NH2] (Ac-[Phe(3-Br)]MD[Phe(3-Br)]-NH2) | 0.0254 | 0.0803 |  |  | 
C[S+]([O-])CC[C@H](NC(=O)[C@H](N)Cc1c[nH]c2ccccc12)C(=O)N[C@@H](CC(=O)O)C(=O)N[C@@H](Cc1cccc(F)c1)C(N)=O (stereo partly drawn) [HT-44, D-Trp-Met(O)-Asp-Phe(3-F)-NH2] |  |  | 34.63 |  | EC50 [2, 7]: > 10 µM
CSCC[C@H](NC(=O)[C@H](Cc1ccc(OS(=O)(=O)O)cc1)NC(C)=O)C(=O)NCC(=O)N[C@@H](Cc1c[nH]c2ccccc12)C(N)=O [HT-209, Ac-Tyr(SO3H)-Met-Gly-Trp-NH2] (Ac-[sY]MGW-NH2) |  | 2.15 |  |  | EC50 [1, 6]: > 10 µM
CSCC[C@H](NC(=O)[C@H](N)Cc1c[nH]c2ccccc12)C(=O)N[C@@H](CC(=O)O)C(=O)N[C@@H](Cc1cccc(Br)c1)C(N)=O [HT-29, D-Trp-Met-Asp-Phe(3-Br)-NH2] |  |  | 85.68 | 0.106 | EC50 [1, 4]: 0.0081 µM
CCCC[C@H](NC(=O)[C@@H](Cc1c(C)[nH]c2ccccc12)NC(C)=O)C(=O)N[C@@H](CC(=O)O)C(=O)N[C@@H](Cc1cn(C)c2ccccc12)C(N)=O [HT-234, Ac-(2-Me-Trp)-Nle-Asp-(1-Me-Trp)-NH2] | 5.46 | 4 |  |  | 
CCCC[C@H](NC(=O)[C@H](Cc1c[nH]c2ccccc12)NC(=O)CNC(C)=O)C(=O)N[C@@H](CC(=O)O)C(=O)N[C@@H](Cc1cccc(Br)c1)C(N)=O [HT-215, Ac-Gly-Trp-Nle-Asp-Phe(3-Br)-NH2] (Ac-GW[Nle]D[Phe(3-Br)]-NH2) |  | 0.237 |  |  | EC50 ([1]; Fluo-8 calcium flux, bound printed in nm in the cell): < 0.0001 µM
CCCCCC[C@@H](NC(C)=O)C(=O)N[C@@H](CCCC)C(=O)N[C@@H](CCC(=O)O)C(=O)N[C@@H](Cc1cccc(Br)c1)C(N)=O [HT-263, Ac-Oa-Nle-Glu-Phe(3-Br)-NH2] (Ac-[dAoc(2)][Nle]E[Phe(3-Br)]-NH2) | 64.5 |  |  |  | EC50 [2, 8]: > 10 µM
CS(=O)(=O)CC[C@H](NC(=O)[C@H](N)Cc1c[nH]c2ccccc12)C(=O)N[C@@H](CC(=O)O)C(=O)N[C@@H](Cc1ccccc1F)C(N)=O [HT-59, D-Trp-Met(O2)-Asp-Phe(2-F)-NH2] |  |  | 39.73 | 9.22 | 
CSCC[C@H](NC(=O)[C@H](Cc1ccc(OS(=O)(=O)O)cc1)NC(=O)[C@H](CC(=O)O)NC(C)=O)C(=O)NCC(N)=O [HT-208, Ac-Asp-Tyr(SO3H)-Met-Gly-NH2] (Ac-D[sY]MG-NH2) |  |  |  |  | EC50 [1, 6]: > 10 µM; EC50 [2, 8]: > 10 µM
